Among the data in patent US10501449B2 (priority 2018, dated 2019) are IC50 values, retold here.

The experiment has as its target hROMK (human Kir1.1) (Homo sapiens (Human), UniProt P48048). The experiment in a line: cell-based. Conditions: CHO T-Rex hROMK stable cell line; thallium flux; 10-point concentration response curve; read-out: Human ROMK Th Flux IC50.

The structures appear in SMILES notation.

Chain of hROMK (human Kir1.1) (P48048 whole entry): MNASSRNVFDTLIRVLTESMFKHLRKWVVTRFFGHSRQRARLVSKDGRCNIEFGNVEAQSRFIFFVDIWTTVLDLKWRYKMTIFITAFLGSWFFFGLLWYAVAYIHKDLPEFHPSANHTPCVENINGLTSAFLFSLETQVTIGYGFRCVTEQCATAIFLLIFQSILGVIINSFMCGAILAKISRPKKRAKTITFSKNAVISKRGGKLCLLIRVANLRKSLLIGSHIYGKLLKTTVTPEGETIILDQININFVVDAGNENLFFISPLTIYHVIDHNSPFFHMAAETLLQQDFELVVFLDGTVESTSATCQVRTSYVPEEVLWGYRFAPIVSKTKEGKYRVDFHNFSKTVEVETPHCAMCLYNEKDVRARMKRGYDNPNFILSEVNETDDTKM

Usually IC50 stands for the concentration that inhibits the measured activity by half. In the case of `Cc1cncc(-n2cc(CN3CCO[C@H](c4ccc5c(c4C)COC5=O)C3)cn2)n1` [Example 41-I, (R)-4-methyl-5-(4-((1-(6-methylpyrazin-2-yl)-1H-pyrazol-4-yl)methyl)morpholin-2-yl) isobenzofuran-1(3H)-one], the 50% inhibitory concentration (IC50) stood at 980 nM.

In the case of `Cc1c([C@@H]2CN(Cc3cnn(-c4cncc(C#N)c4)c3)CCO2)ccc2c1COC2=O` [Example 42-I, (R)-5-(4-((2-(4-methyl-1-oxo-1,3-dihydroiso-benzofuran-5-yl)morpholino)methyl)-1H-pyrazol-1-yl)nicotinonitrile], the 50% inhibitory concentration (IC50) came out at 490 nM.

Regarding `Cc1c([C@@H]2CN(Cc3cnn(-c4cccc(C#N)c4)c3)CCO2)ccc2c1COC2=O` [Example 43-I, (R)-3-(4-((2-(4-methyl-1-oxo-1,3-dihydroiso-benzofuran-5-yl)morpho-lino)methyl)-1H-pyrazol-1-yl)benzonitrile], the half-maximal inhibitory concentration (IC50) is 110 nM.

Turning to `Cc1c([C@@H]2CN(Cc3cnn(-c4ccncc4)c3)CCO2)ccc2c1COC2=O` [Example 44-I, (R)-4-methyl-5-(4-((1-(pyridin-4-yl)-1H-pyrazol-4-yl)methyl)morpholin-2-yl)isobenzo-furan-1(3H)-one], the IC50 turned out to be 200 nM.

In the case of `Cc1c([C@@H]2CN(Cc3cnn(-c4ccc(S(C)(=O)=O)cc4)c3)CCO2)ccc2c1COC2=O` [Example 45-I, (R)-4-methyl-5-(4-((1-(4-(methylsulfonyl)phenyl)-1H-pyrazol-4-yl)methyl)morpholin-2-yl)isobenzofuran-1(3H)-one], the IC50 was determined as 370 nM.

Take `Cc1c([C@@H]2CN(Cc3cnn(-c4ccn5nccc5n4)c3)CCO2)ccc2c1COC2=O` [Example 50-I, (R)-4-methyl-5-(4-((1-(pyrazolo[1,5-a]pyrimidin-5-yl)-1H-pyrazol-4-yl)methyl)morpholin-2-yl)isobenzofuran-1(3H)-one]: the half-inhibitory concentration (IC50) came to 670 nM.

As to `Cc1cc(-n2ccc(CN3CCO[C@H](c4ccc5c(c4C)COC5=O)C3)n2)ncc1C#N` [Example 53-I, (R)-4-methyl-6-(3-((2-(4-methyl-1-oxo-1,3-dihydroisobenzofuran-5-yl)morpholino)methyl)-1H-pyrazol-1-yl) nicotinonitrile], the IC50 stood at 370 nM.

`COc1c(CN2CCN[C@H](c3ccc4c(c3C)COC4=O)C2)cnn1-c1ccc2oc(=O)n(C)c2c1` [Example 54-I, (R)-5-(5-methoxy-4-((3-(4-methyl-1-oxo-1,3-dihydroisobenzofuran-5-yl)piperazin-1-yl)methyl)-1H-pyrazol-1-yl)-3-methylbenzo[d] oxazol-2(3H)-one]: the IC50 worked out at 110 nM.

In the case of `Cc1c([C@@H]2CN(Cc3cnn(-c4cc(F)c5oc(=O)n(C)c5c4)c3)CCN2)ccc2c1COC2=O` [Example 55-I, (R)-7-fluoro-3-methyl-5-(4-((3-(4-methyl-1-oxo-1,3-dihydroisobenzo-furan-5-yl)piperazin-1-yl)methyl)-1H-pyra-zol-1-yl)benzo[d]oxazol-2(3H)-one], the IC50 was found to be 86 nM.

For `COc1cc(-n2cc(CN3CCN[C@H](c4ccc5c(c4C)COC5=O)C3)cn2)cc2c1oc(=O)n2C` [Example 56-I, (R)-7-methoxy-3-methyl-5-(4-((3-(4-methyl-1-oxo-1,3-dihydroiso-benzofuran-5-yl)piperazin-1-yl)methyl)-1H-pyrazol-1-yl)benzo[d] oxazol-2(3H)-one], the half-inhibitory concentration (IC50) was 150 nM.

As to `Cc1c([C@@H]2CN(Cc3cnn(-c4ccc5oc(=O)n(C)c5c4)c3)CCN2)ccc2c1COC2=O` [Example 58-I, (R)-3-methyl-5-(4-((3-(4-methyl-1-oxo-1,3-dihydroisobenzofuran-5-yl)piperazin-1-yl)methyl)-1H-pyrazol-1-yl) benzo[d]oxazol-2(3H)-one], the IC50 is 60 nM.

For `Cc1c([C@@H]2CN(Cc3nnc(-c4ccc(C#N)cn4)o3)CCN2)ccc2c1COC2=O` [Example 62-I, (R)-6-(5-((3-(4-methyl-1-oxo-1,3-dihydroiso-benzofuran-5-yl)piper-azin-1-yl)methyl)-1,3,4-oxadiazol-2-yl) nicotinonitrile], the IC50 worked out at 170 nM.

Take `CC(=O)N1CCN(Cc2cnn(-c3cc(C)c(C#N)cn3)c2)C[C@H]1c1ccc2c(c1C)COC2=O` [Example 68-I, (R)-6-(4-((4-acetyl-3-(4-methyl-1-oxo-1,3-di-hydroisobenzofuran-5-yl)piperazin-1-yl)methyl)-1H-pyrazol-1-yl)-4-methylnicotinonitrile]: the IC50 was determined as 1700 nM.

As to `Cc1cc(-n2cc(CN3CCN(S(C)(=O)=O)[C@H](c4ccc5c(c4C)COC5=O)C3)cn2)ncc1C#N` [Example 69-I, (R)-4-methyl-6-(4-((3-(4-methyl-1-oxo-1,3-dihydroisobenzofuran-5-yl)-4-(methylsulfonyl)piperazin-1-yl)methyl)-1H-pyrazol-1-yl) nicotinonitrile], the IC50 worked out at 900 nM.

For the compound `Cc1c([C@@H]2CN(Cc3cnn(-c4ccc5oc(=O)n(C)c5c4)c3)CC(=O)N2)ccc2c1COC2=O` [Example 71-I, (R)-3-methyl-5-(4-((3-(4-methyl-1-oxo-1,3-dihydroisobenzofuran-5-yl)-5-oxopiperazin-1-yl)methyl)-1H-pyrazol-1-yl)benzo[d]oxazol-2(3H)-one], the half-inhibitory concentration (IC50) turned out to be 800 nM.

In the case of `Cc1c([C@@H]2CN(Cc3cn(-c4ccc5oc(=O)n(C)c5c4)nn3)CC(=O)N2)ccc2c1COC2=O` [Example 72-I, (R)-3-methyl-5-(4-((3-(4-methyl-1-oxo-1,3-dihydroisobenzofuran-5-yl)-5-oxopiperazin-1-yl)methyl)-1H-1,2,3-triazol-1-yl)benzo[d] oxazol-2(3H)-one], the IC50 is 550 nM.

On to `Cc1c([C@@H]2CN(Cc3ccc(-n4cnc(C#N)n4)nc3)CC(=O)N2)ccc2c1COC2=O` [Example 73-I, (R)-1-(5-((3-(4-methyl-1-oxo-1,3-dihydroiso-benzofuran-5-yl)-5-oxo-piperazin-1-yl)methyl)pyridin-2-yl)-1H-1,2,4-triazole-3-carbonitrile], for which the IC50 amounted to 150 nM.

Turning to `COc1cc(-c2ccc(CN3CC(=O)N[C@H](c4ccc5c(c4C)COC5=O)C3)cn2)ncc1C#N` [Example 74-I, (R)-4-methoxy-5′-((3-(4-methyl-1-oxo-1,3-di-hydroisobenzofuran-5-yl)-5-oxopiperazin-1-yl)methyl)-[2,2′-bi-pyridine]-5-carbonitrile], the IC50 was determined as 570 nM.

As to `Cc1ncn(-c2ccc(CN3CC(=O)N[C@H](c4ccc5c(c4C)COC5=O)C3)cn2)n1` [Example 75-I, (R)-6-(4-methyl-1-oxo-1,3-dihydroisobenzo-furan-5-yl)-4-((6-(3-methyl-1H-1,2,4-triazol-1-yl)pyridin-3-yl)methyl) piperazin-2-one], the IC50 stood at 680 nM.

On to `Cc1cn(-c2ccc(CN3CC(=O)N[C@H](c4ccc5c(c4C)COC5=O)C3)cn2)cn1` [Example 76-I, (R)-6-(4-methyl-1-oxo-1,3-dihydroisobenzo-furan-5-yl)-4-((6-(4-methyl-1H-imidazol-1-yl)pyridin-3-yl)methyl) piperazin-2-one], for which the IC50 came out at 300 nM.

Regarding `Cc1cc(-n2cc(CN3CC(=O)N(C)[C@H](c4ccc5c(c4C)COC5=O)C3)cn2)ncc1C#N` [Example 77-I, (R)-4-methyl-6-(4-((4-methyl-3-(4-methyl-1-oxo-1,3-dihydroisobenzo-furan-5-yl)-5-oxo-piperazin-1-yl)methyl)-1H-pyrazol-1-yl)nicotino-nitrile], the half-inhibitory concentration (IC50) came out at 820 nM.
